Measured values from patent US4533654A, “Urotensin peptides” (The Salk Institute For Biological Studies, priority 1984, dated 1985).
Read-outs that look alike come from different tables or passages of the source.

Key:
[1] = test system: ACTH and β-END-LI secretion; assay: ACTH and β-END-LI secretion in vivo in several rat preparations
Experimental: (§1) The urotensin peptides from Example II and III are examined for effects on the secretion of ACTH and β-endorphin in vitro and also examined in vivo. […] UI activity of the peptides was measured by the isolated rat hind limb assay, Lederis, K. et al. "Effects and Assay of Urotensin I on the Perfused Hind Limb of the Rat." Gen. Comp. Endocrinol., 24:10-16, 1974. In vivo hypotensive activity of extracted peptides was measured in anaesthetized rats, Lederis, K. and Medakovic, M. "Pharmacological Observations on the Hypotensive Action of Extracts of Teleost Fish Urophyses (Urotensin I) in the Rat." Br. J. Pharmacol. 51:315-324, 1974, and in anaesthetized dogs, MacCannell and Lederis, "Dilatation of the Mesenteric Vascular Bed of the Dog Produced by a Peptide, Urotensin I." J. Pharm. Exp. Ther. 203:38-46, 1977.

[2] = test system: blood pressure; assay: In vivo hypotensive activity in anaesthetized rats; conditions: rat; vascular dilatation appears less selective
Experimental: as §1

[3] = test system: isolated rat hind limb; assay: Isolated rat hind limb assay (UI activity)
Experimental: as §1
(§2) In the pentobarbital-anaesthetized dog, the threshold dose of UI for mesenteric vasodilatation, when given close arterially into the cephalic mesenteric A, is between 0.001 and 0.01 μg for both carp UI (1-41) and for the 4-41 fragment of carp UI. Doses of 0.1-0.5 μg of both peptides produce a 50-150% increase in mesenteric flow; accompanying changes in blood pressure are very modest (about 10% decrease). […] Comp. Endocrinol. 45:446-452, 1981.

[4] = test system: mesenteric vascular bed; assay: Blood pressure and vascular dilatation in the monkey; format: in vivo; conditions: for effect on blood pressure: appears due solely to dilatation of the mesenteric vascular bed
[5] = test system: blood pressure; assay: Lowering of blood pressure (summary statement, species not stated); format: in vivo
[6] = test system: cultured rat pituitary cells; assay: Secretion of ACTH and β-endorphin by cultured rat pituitary cells; format: cell-based; conditions: for stimulation of the secretion of ACTH and β-endorphin: in vitro
Experimental: as §1

[7] = test system: mesenteric vascular bed; assay: Blood pressure and mesenteric vasodilatation in the anaesthetized dog; format: in vivo; conditions: for potency of synthetic peptide versus extracted and purified peptide: anaesthetized dog in vivo; for dilatation of vascular beds other than mesenteric / effect on blood pressure: dog; for effect on blood pressure: appears due solely to dilatation of the mesenteric vascular bed; for accompanying decrease in blood pressure / increase in mesenteric flow: pentobarbital-anaesthetized dog, doses of 0.1-0.5 μg
Experimental: as §1, §2

[8] = test system: teleost fish pituitaries; assay: Secretion of ACTH by teleost fish pituitaries
Experimental: as §1

[9] = Comparison of the two extracted and the two synthetic carp peptides (assay not specified); conditions: synthetic versus extracted peptide
Experimental: as §2

[10] = test system: isolated mesenteric artery strips; assay: Isolated mesenteric artery strips of the rat
[11] = Biological activity (test not specified)
[12] = test system: blood pressure; conditions: mammals; reported in the literature; cited from earlier work
[13] = test system: secretion of ACTH and β-endorphin; conditions: reported in the literature; cited from earlier work

Row | Compound | effect on blood pressure [2] | potency of synthetic peptide versus extracted and purified peptide [3] | dilatation of vascular beds other than mesenteric [4] | effect on blood pressure [4] | potency to stimulate ACTH and β-endorphin secretion relative to amunine (CRF) [6] | potency of synthetic peptide versus extracted and purified peptide [7] | dilatation of vascular beds other than mesenteric [7] | effect on blood pressure [7] | accompanying decrease in blood pressure [7] | increase in mesenteric flow [7] | potency relative to amunine in stimulating the secretion of ACTH [8] | activity of synthetic peptide as % of the activity of the respective extracted carp UI peptide [9] | potency of synthetic peptide versus extracted and purified peptide [10] | other results
1 | H-NDDPPISIDLTFHLLRNMIEMARNENQREQAGLNRKYLDEV-NH2 [carp UI (1-41)] | more marked fall in blood pressure | equipotent with the extracted and purified peptides | neither peptide dilates other vascular beds | modest but sustained depression of the blood pressure | comparable to amunine (CRF) | equipotent with the extracted and purified peptides | neither peptide dilates other vascular beds | modest but sustained depression of the blood pressure | about 10% | 50-150% | several times more potent than amunine | 119±19% | equipotent with the extracted and purified peptides | stimulation of ACTH and β-END-LI secretion in vivo ([1]; listed as UI): stimulate ACTH and β-endorphin activities in vitro and in vivo; stimulation of ACTH and β-END-LI secretion in vivo ([1]; listed as urotensin I): stimulate ACTH and β-END-LI secretion in vivo; lowering of blood pressure [5]: lower blood pressure for an extended time period; stimulation of the secretion of ACTH and β-endorphin ([6]; listed as UI): stimulate ACTH and β-endorphin activities in vitro; stimulation of the secretion of ACTH and β-endorphin ([6]; listed as urotensin I): high potency
2 | H-PPISIDLTFHLLRNMIEMARNENQREQAGLNRKYLDEV-NH2 [UI 4-41] | more marked fall in blood pressure | equipotent with the extracted and purified peptides | neither peptide dilates other vascular beds | modest but sustained depression of the blood pressure | comparable to amunine (CRF) | equipotent with the extracted and purified peptides | neither peptide dilates other vascular beds | modest but sustained depression of the blood pressure | about 10% | 50-150% | several times more potent than amunine | 123±58% | equipotent with the extracted and purified peptides | stimulation of ACTH and β-END-LI secretion in vivo [1]: stimulate ACTH and β-END-LI secretion in vivo; biological activity [11]: substantially the same biological activity as the 41-residue polypeptide; stimulation of the secretion of ACTH and β-endorphin [6]: high potency
3 | CC[C@H](C)[C@H](NC(=O)[C@@H](NC(=O)[C@H](CC(=O)O)NC(=O)[C@H](CC(C)C)NC(=O)[C@H](CC(C)C)NC(=O)[C@H](CC(C)C)NC(=O)[C@H](CCCNC(=N)N)NC(=O)[C@H](CC(N)=O)NC(=O)[C@H](CC(N)=O)NC(=O)[C@H](C)NC(=O)[C@H](C)NC(=O)[C@H](CCC(N)=O)NC(=O)[C@H](CCC(N)=O)NC(=O)[C@H](CCCCN)NC(=O)[C@H](CCC(=O)O)NC(=O)[C@H](CCCCN)NC(=O)[C@H](CCC(=O)O)NC(=O)[C@H](CCC(N)=O)NC(=O)[C@H](CCCCN)NC(=O)[C@H](CCC(=O)O)NC(=O)[C@@H](NC(=O)[C@H](CCC(=O)O)NC(=O)[C@@H](NC(=O)[C@H](CCSC)NC(=O)[C@H](CCCCN)NC(=O)[C@H](CCCNC(=N)N)NC(=O)[C@H](CC(C)C)NC(=O)[C@H](CC(C)C)NC(=O)[C@H](CCC(=O)O)NC(=O)[C@H](CC(C)C)NC(=O)[C@H](CO)NC(=O)[C@H](CC(C)C)NC(=O)[C@H](CC(=O)O)NC(=O)[C@@H](NC(=O)[C@H](CO)NC(=O)[C@@H](NC(=O)[C@@H]1CCCN1C(=O)[C@@H]1CCCN1C(=O)CNC(=O)[C@@H]1CCC(=O)N1)[C@@H](C)CC)[C@@H](C)CC)[C@@H](C)CC)[C@@H](C)CC)[C@@H](C)O)C(N)=O [Sauvagine] | – | – | – | – | – | – | – | – | – | – | – | – | – | lowering blood pressure [12]: biological activity in lowering blood pressure in mammals; stimulating the secretion of ACTH and β-endorphin [13]: stimulating the secretion of ACTH and β-endorphin
